Our source for the refractive index and mass density values is the NIST ThermoML archive (doi:10.1021/je0602521).

Each structure is given as a SMILES string. Numbers after ± are expanded uncertainties.

Series [1] can be described thus: refractive index (Na D-line) (dimensionless). The following applies: 298.15 K; 101.33 kPa; Liquid; Standard Abbe refractometry.
For series [2] the following is noted: 298.15 K; 101.33 kPa; Liquid.

Take `CCO` [ethanol]: in series [1], the refractive index – broadly, a measure of how strongly the sample bends light – is on record as 1.35941 ± 0.00068.

Regarding `CO` [methanol], the mass density (as a rule, mass per unit of volume) in series [2] is listed as 786.46 ± 0.26 kg/m3.
